In patent US20100190755A1, “TETRACYCLINE COMPOUNDS FOR THE TREATMENT OF RHEUMATOID ARTHRITIS AND RELATED METHODS OF TREATMENT” (priority 2008, published 2010) one finds MIC and inhibition in vivo data, which are given here for 24 compounds.

For orientation: MIC means the lowest concentration found to suppress growth. The low end stands for greater potency, the high end for weaker potency. A word on the inhibition in vivo: it is the change of the read-out against control, counted positive when it falls. A low value points to little suppression.

Values after ≈ are worked out from the molar mass of the structure shown.

Assay [1] concerns S. aureus RN450. Kind of assay: Antibacterial activity MIC, Gram+ (Table 9). Type of assay: cell-based. Particulars: Staphylococcus aureus, CAMHB, 35° C., approximately 18 hr. Here is the method:
(§1) 2 mg of each compound is dissolved in 100 μl of DMSO. The solution is then added to cation-adjusted Mueller Hinton broth (CAMHB), which results in a final compound concentration of 200 μg per ml. The tetracycline compound solutions are diluted to 50 μL volumes, with a test compound concentration of 0.098 μg/ml. Optical density (OD) determinations are made from fresh log-phase broth cultures of the test strains. Dilutions are made to achieve a final cell density of 1×10^6 CFU/ml. At OD=1, cell densities for different genera should be approximately:
(§2) 50 μl of the cell suspensions are added to each well of microtiter plates. The final cell density should be approximately 5×10^5 CFU/ml. These plates are incubated at 35° C. in an ambient air incubator for approximately 18 hr. The plates are read with a microplate reader and are visually inspected when necessary. The MIC is defined as the lowest concentration of the tetracycline compound that inhibits growth.

In assay [2] the test system is collagen-induced arthritis (CIA) in male DBA/1 mice. Kind of assay: CIA model, Example 3 (cumulative scores vs untreated controls). Type of assay: in vivo. The settings on record: Mus musculus. The protocol: The CIA model data were acquired according to the following protocol: • 1. Male DBA/1 mice were anaesthetized by i.p. injection of ketamine/xylazine (1.25 mg/ml:0.25 mg/ml, 100 μl/mouse). • 2. Anaesthetized mice were immunized intradermally at the base of the tail with 0.1 or 0.2 ml of an emulsion composed of 100 or 200 μg bovine type II collagen in Complete Freund's Adjuvant (50 μl/spot x 2 or 4 spots). • 3. At day 21 after the immunization, mice received an intradermal boost of 100 μl of an emulsion composed of 100 μg bovine type II collagen in Incomplete Freund's Adjuvant (50 μl/spot x 2 spots) • 4. After onset of disease symptoms (usually 3-4 days after boost), tetracycline derivatives were administered daily into mice via intraperitoneal or oral routes for 8 to 15 days. Methotrexate (12 mg/kg/day) or dexmethasone (4 mg/kg/day) was used as a control for inflammation suppression. • 5. The disease severity was scored daily for 8-15 days after the appearance of the symptoms. Disease severity was graded as following: • a. Visual clinical score for the presence of inflammation in the fingers/toes of the forepaws and hindpaws: • 1. Erythema and mild swelling confined to the mid-foot (tarsals) or ankle joint • 2. Erythema and mild swelling extending from the ankle to the mid-foot • 3. Erythema and moderate swelling extending from the ankle to the metatarsal joints • 4. Erythema and severe swelling encompassing the ankle, foot, and digits. • b. Clinical swelling score for the presence of paw edema in the forepaws and hindpaws: • Paw thickness was measured daily by an engineering micrometer after isofluorane inhalation or ketamine/xylazine (1.25 mg/ml:0.25 mg/ml, 100 μl/mouse) i.p. injection.
Daily scores and paw swelling measurements for each treatment group of mice were added over the total observation period to obtain a cumulative score. Cumulative scores were compared between untreated controls and treated groups to determine tetracycline-induced inhibition.

The subject of assay [3] is E. coli 25922. The experiment in a line: Antibacterial activity MIC, Gram- (Table 9). In kind it is cell-based. Particulars: Escherichia coli, CAMHB, 35° C., approximately 18 hr. The protocol: as §1, §2

On to `CCO/N=C(\C)c1cc(N(C)C)c2c(c1O)C(=O)C1=C(O)[C@]3(O)C(=O)C(C(N)=O)=C(O)[C@@H](N(C)C)[C@@H]3C[C@@H]1C2` [Z], for which the minimal inhibitory concentration (MIC) in assay [1] is 4 µg/mL (≈ 7.37 µM); in assay [3], greater than 64 µg/mL. In assay [2], the inhibition in vivo at 25 mg/kg is 32%.
On to `NC(=O)C1=C(O)C[C@@H]2C[C@@H]3Cc4c(-c5ncco5)ccc(O)c4C(=O)C3=C(O)[C@]2(O)C1=O` [BB], for which the MIC is 8 µg/mL (≈ 18.2 µM) in assay [1] and greater than 64 µg/mL in assay [3]. Also, the inhibition in vivo at 25 mg/kg in assay [2] amounted to 47%.
Turning to `CC(C)c1noc(-c2cc(N(C)C)c3c(c2O)C(=O)C2=C(O)[C@]4(O)C(=O)C(C(N)=O)=C(O)C[C@@H]4C[C@@H]2C3)n1` [AR], the MIC in assay [1] is 0.5 µg/mL (≈ 0.953 µM); in assay [3] it was greater than 64 µg/mL. 25 mg/kg produced 64% inhibition in vivo in assay [2].
For `CCc1cc(N(C)C)c2c(c1O)C(=O)C1=C(O)[C@]3(O)C(=O)C(C(N)=O)=C(O)[C@@H](N(C)C)[C@@H]3C[C@@H]1C2` [H], the values for the minimal inhibitory concentration (MIC) in assay [1] and in assay [3] were 0.5 µg/mL (≈ 1.03 µM) and greater than 64 µg/mL, respectively. In assay [2], this compound yielded an inhibition in vivo at 25 mg/kg of 41%.
For `CCCc1cc(N(C)C)c2c(c1O)C(=O)C1=C(O)[C@]3(O)C(=O)C(C(N)=O)=C(O)[C@@H](N(C)C)[C@@H]3C[C@@H]1C2` [E], in that order: 2 µg/mL (≈ 4 µM), greater than 64 µg/mL and 44%.
As for `CN(C)c1cc(C(=O)OCCO)c(O)c2c1C[C@H]1C[C@H]3CC(O)=C(C(N)=O)C(=O)[C@@]3(O)C(O)=C1C2=O` [AK], the MIC in assay [1] and in assay [3] was greater than 64 µg/mL in each case. For the same compound, the inhibition in vivo at 25 mg/kg in assay [2] is 24%.
With `CN(C)c1cc(C2=CCCCO2)c(O)c2c1C[C@H]1C[C@H]3CC(O)=C(C(N)=O)C(=O)[C@@]3(O)C(O)=C1C2=O` [AP], the MIC in assay [1] is 4 µg/mL (≈ 8.06 µM); in assay [3], greater than 64 µg/mL. Also, the inhibition in vivo at 25 mg/kg in assay [2] came out at 63%.
On to `CCC(=O)c1cc(N(C)C)c2c(c1O)C(=O)C1=C(O)[C@]3(O)C(=O)C(C(N)=O)=C(O)[C@@H](N(C)C)[C@@H]3C[C@@H]1C2` [Compound M], for which the results for the MIC in assay [1] and in assay [3] were 8 µg/mL (≈ 15.6 µM) and greater than 64 µg/mL, respectively. The same compound returned an inhibition in vivo at 25 mg/kg in assay [2] of 25%.
Take `COCCOC(=O)c1cc(N(C)C)c2c(c1O)C(=O)C1=C(O)[C@]3(O)C(=O)C(C(N)=O)=C(O)C[C@@H]3C[C@@H]1C2` [AO]: the MIC in assay [1] is 16 µg/mL (≈ 31 µM); in assay [3] it was greater than 64 µg/mL. In assay [2], this compound displayed an inhibition in vivo at 25 mg/kg of 52%.
Regarding `CN(C)[C@@H]1C(O)=C(C(N)=O)C(=O)[C@@]2(O)C(O)=C3C(=O)c4c(O)ccc(-c5ccc6c(c5)OCO6)c4C[C@H]3C[C@@H]12` [B], the MIC in assay [1] amounted to 0.13 µg/mL (≈ 0.243 µM); in assay [3], 64 µg/mL (≈ 120 µM). In assay [2], this compound returned an inhibition in vivo at 25 mg/kg of 23%.
For `CN(C)c1ccc(-c2cc(N(C)C)c3c(c2O)C(=O)C2=C(O)[C@]4(O)C(=O)C(C(N)=O)=C(O)[C@@H](N(C)C)[C@@H]4C[C@@H]2C3)cc1` [R], in that order: 2 µg/mL (≈ 3.47 µM), greater than 64 µg/mL and 32%.
With `CN(C)c1cc(-c2nccs2)c(O)c2c1C[C@H]1C[C@H]3CC(O)=C(C(N)=O)C(=O)[C@@]3(O)C(O)=C1C2=O` [AJ], the MIC in assay [1] was 0.25 µg/mL (≈ 0.502 µM); in assay [3] it was greater than 64 µg/mL. In assay [2], the inhibition in vivo at 25 mg/kg is 39%.
With `CN(C)c1cc(-c2ccc(C(N)=O)cc2)c(O)c2c1C[C@H]1C[C@H]3[C@H](N(C)C)C(O)=C(C(N)=O)C(=O)[C@@]3(O)C(O)=C1C2=O` [S], the MIC in assay [1] and in assay [3] was greater than 64 µg/mL in each case. Besides, in assay [2], the inhibition in vivo at 25 mg/kg came out at 46%.
`CN(C)c1cc(-c2cccnc2)c(O)c2c1C[C@H]1C[C@H]3CC(O)=C(C(N)=O)C(=O)[C@@]3(O)C(O)=C1C2=O` [AE]: the minimal inhibitory concentration (MIC) in assay [1] was 1 µg/mL (≈ 2.03 µM). Further, in assay [2], 12 mg/kg produced 65% inhibition in vivo and 25 mg/kg produced 80% inhibition in vivo. The compound also registered an MIC in assay [3] greater than 64 µg/mL.
As for `CCOC(=O)c1cc(N(C)C)c2c(c1O)C(=O)C1=C(O)[C@]3(O)C(=O)C(C(N)=O)=C(O)C[C@@H]3C[C@@H]1C2` [AA], the results for the MIC in assay [1] and in assay [3] were 2 µg/mL (≈ 4.11 µM) and greater than 64 µg/mL, respectively. Also, in assay [2], the inhibition in vivo at 25 mg/kg is 41%.
Take `CC(=O)c1cc(N(C)C)c2c(c1O)C(=O)C1=C(O)[C@]3(O)C(=O)C(C(N)=O)=C(O)C[C@@H]3C[C@@H]1C2` [Compound T]: the MIC in assay [1] stood at 4 µg/mL (≈ 8.76 µM). Further, in assay [2], testing at 12 mg/kg gave an inhibition in vivo of 10% and the inhibition in vivo at 25 mg/kg was 44%. In assay [3], this compound had a minimum inhibitory concentration (MIC) greater than 64 µg/mL.
As for `CN(C)c1cc(C2CC2)c(O)c2c1C[C@H]1C[C@H]3CC(O)=C(C(N)=O)C(=O)[C@@]3(O)C(O)=C1C2=O` [Compound AV], the figures for the MIC in assay [1] and in assay [3] were 1 µg/mL (≈ 2.2 µM) and greater than 64 µg/mL, respectively. The compound further had an inhibition in vivo at 25 mg/kg in assay [2] of 48%.
`CC(=O)c1ccc(O)c2c1C[C@H]1C[C@H]3[C@H](N(C)C)C(O)=C(C(N)=O)C(=O)[C@@]3(O)C(O)=C1C2=O` [C] had an MIC in assay [1] of 0.06 µg/mL (≈ 0.131 µM). Besides, in assay [2], the inhibition in vivo at 12 mg/kg was 62% and the inhibition in vivo at 25 mg/kg amounted to 62%. In assay [3], the minimum inhibitory concentration (MIC) turned out to be 0.13 µg/mL (≈ 0.285 µM).
Regarding `CC(=O)c1ccc(O)c2c1C[C@H]1C[C@H]3CC(O)=C(C(N)=O)C(=O)[C@@]3(O)C(O)=C1C2=O` [BC], the minimum inhibitory concentration (MIC) was 4 µg/mL (≈ 9.68 µM) in assay [1] and greater than 64 µg/mL in assay [3]. This compound returned an inhibition in vivo at 25 mg/kg in assay [2] of 72%.
`CN(C)c1cc(C(=O)NC(C)(C)C)c(O)c2c1C[C@H]1C[C@H]3CC(O)=C(C(N)=O)C(=O)[C@@]3(O)C(O)=C1C2=O` [AH]: the minimum inhibitory concentration (MIC) is 1 µg/mL (≈ 1.95 µM) in assay [1] and greater than 64 µg/mL in assay [3]. Moreover, the inhibition in vivo at 25 mg/kg in assay [2] stood at 59%.
On to `CN(C)c1cc(C(=O)O)c(O)c2c1C[C@H]1C[C@H]3CC(O)=C(C(N)=O)C(=O)[C@@]3(O)C(O)=C1C2=O` [U], for which the minimal inhibitory concentration (MIC) in assay [1] and in assay [3] was greater than 64 µg/mL throughout. The compound further had an inhibition in vivo at 25 mg/kg in assay [2] of 50%.
Take `CC(C)c1cc(N(C)C)c2c(c1O)C(=O)C1=C(O)[C@]3(O)C(=O)C(C(N)=O)=C(O)C[C@@H]3C[C@@H]1C2` [AU]: the MIC in assay [1] is 1 µg/mL (≈ 2.19 µM); in assay [3], greater than 64 µg/mL. Besides, in assay [2], the inhibition in vivo at 25 mg/kg was determined as 51%.
Regarding `CN(C)[C@@H]1C(O)=C(C(N)=O)C(=O)[C@@]2(O)C(O)=C3C(=O)c4ccccc4C[C@H]3C[C@@H]12` [Q], the figures for the MIC in assay [1] and in assay [3] were 0.5 µg/mL (≈ 1.25 µM) and 32 µg/mL (≈ 80.3 µM), respectively. Testing at 25 mg/kg in assay [2] gave an inhibition in vivo of 28%.
Consider `CN(C)[C@@H]1C(O)=C(C(N)=O)C(=O)[C@@]2(O)C(O)=C3C(=O)c4c(O)ccc(C5=CCNCC5)c4C[C@H]3C[C@@H]12` [L], for which the minimum inhibitory concentration (MIC) in assay [1] was found to be 2 µg/mL (≈ 4.04 µM); in assay [3], 64 µg/mL (≈ 129 µM). Further, in assay [2], 25 mg/kg produced 48% inhibition in vivo.
